Key:
[1] = tested on: BV-2 microglial cells; assay: Cytotoxicity (MTT assay); assay type: cell-based, murine; conditions: BV-2 cells, 24 h
Procedure: BV-2 microglial cells were cultured in DMEM supplemented with 10% fetal bovine serum, 2 mM L-glutamine, 1% penicillin/streptomycin (100 units/mL penicillin and 100 μg/mL streptomycin) at 37°C in 5% CO2. BV-2 microglial cells were plated in a 24-well plate at a density of 2 × 10^5 cells/well for 24 h. Various concentrations at 0, 1.25, 2.5, 5, 10, or 20 μM of curcumin or CUR-2GE were determined for a non-toxic concentration. After 24 h, cell viability was assessed by an MTT assay. The media was removed and replaced with an MTT solution in PBS (0.5 mg/mL). After 3-h incubation, the MTT solution was discarded, and formazan crystals formed after the reaction was dissolved in DMSO. The absorbance was then read at 540 nm using a microplate reader (CLARIOstar®, BMG Labtech, Ortenberg, Germany). The percentage of cell viability was expressed relative to the control cells. In addition, the cell viability of BV-2 microglial cells treated with LPS and a combination of LPS and the test compounds was also determined.

[2] = design: method as in PMID 9278892; conditions: cited from earlier work
[3] = design: method as in PMID 29678124, PMID 25923809, PMID 27758710; conditions: practically insoluble = <0.1 mg/mL; cited from earlier work
[4] = Identification of incomplete hydrolytic products of CUR-2GE (UPLC-MS/MS); assay type: physicochemical; conditions: buffer pH 1.2, 37°C, 24 h; ND = not detected
Procedure: The incomplete hydrolytic products of CUR-2GE were identified in buffers (pH 1.2, 4.5, 6.8 and 7.4) and human plasma. For hydrolysis in the buffer solutions, the stock solution of CUR-2GE at 200 μg/mL was diluted with a pre-incubated buffer in a vial at 37°C to obtain a final concentration at 10 μg/mL. Samples in buffers pH 1.2 and 4.5 were subsequently incubated at 37°C for 24 h while those in buffers pH 6.8 and 7.4 were incubated at 37°C for 7 min. For hydrolysis in human plasma, the stock solution of CUR-2GE at 100 μg/mL in the diluent was prepared and diluted with pre-incubated human plasma at 37°C for 5 min to obtain a final concentration of 5 μg/mL. The sample was incubated at 37°C for 1 h and an aliquot of 300 μL was added with 300 μL of acetonitrile to stop the reaction. The reaction mixture was then centrifuged at 4°C at 14,000 rpm for 30 min. The supernatant was analyzed using UPLC-MS/MS described below. CUR-2GE, CUR-1GE and curcumin standards were prepared at 10 μg/mL in diluent (2% acetic acid in water: acetonitrile (80: 20, v/v)) and were subjected to UPLC-MS/MS analysis. The retention times and MS/MS spectra of CUR-2GE and its hydrolytic products in buffers and human plasma were compared with those of the standards. The UPLC-MS/MS approach was modified from previous studies. […]

curcumin
non-toxic concentrations (no cytotoxicity) [1]: ≤ 10 µM
half-life in human plasma, previously reported [2]: 8 h
USP solubility classification [3]: practically insoluble
detection by UPLC-MS/MS after incubation of CUR-2GE [4]: not detected
